From publication PMC2939023, “Attenuated T Cell Responses to a High-Potency Ligand In Vivo” (PLoS Biology, 2010)
Entries after “also recorded” stand apart in the source; their conditions may differ. Where no end group is shown, it is not given here.

How the values were obtained:
5C.C7 T cells = experiment: In vivo antigen persistence (division of later transferred 5C.C7 T cells); design: species or system mouse; conditions: peptide injected 4, 2, 1, 0 wk before transfer; division at 48 h; in words
Source text: We addressed potential differential in vivo antigen persistence by injecting MCC or K5 peptide at various times prior to transfer of CFSE-labeled 5C.C7 T cells (Figure S7). In this experiment, the extent of division of the transferred T cells serves as a readout of amount of antigen present. […] We then considered the possibility that the blunted responses were occurring because the amount of K5 pMHC complexes was limiting in vivo. In order to directly examine the stimulatory function of in vivo–pulsed APCs, we used irradiated splenic DCs isolated from mice immunized with the different peptides to activate naïve 5C.C7 T cells in vitro, without the addition of exogenous peptide (Figure 2B,C).
Supplementary file pbio.1000481.s007.eps: Figure S7 MCC and K5 peptides persist equally in vivo. B10.A mice were immunized with the indicated peptides at 4, 2, 1, and 0 wk before adoptive transfer of CFSE-labeled 5C.C7 T cells. 5C.C7 T cell division was analyzed at 48 h after transfer as a measure of peptide antigen persistence over time. All histograms are gated on CD4^+CD45.1^+ 5C.C7 T cells. Data shown are representative of two mice per condition and two experiments. (0.99 MB EPS) Click here for additional data file.

[1] = system: 5C.C7 RAG2−/− lymphocytes; type: cell-based, mouse; conditions: 3 h
Protocol: Cells were cultured in a 37°C humidified chamber with 5% C0_2 in complete RPMI1640 (supplemented with 10% FCS, […], 100 U/mL penicillin and streptomycin, 2 µM 2-mercaptoethanol). Single-cell suspensions were prepared from lymph nodes harvested from 5C.C7 RAG2-deficient mice (routinely >90% Vα11+Vβ3+ by flow cytometry) and stimulated in triplicate in 96-well round-bottom plates with irradiated (2,000 rad) B10.A splenocytes and the indicated peptides for 60 h. Proliferation was monitored by the addition of ^3H-methyl-thymidine (1 µCi/well). Cells were harvested onto glass-fiber filters using a Tomtec harvester, and filters were counted using a MicroBeta scintillation counter (Perkin-Elmer).

OT-1 TCR = OT-1 TCR ligands, Listeria monocytogenes; in words; ref [25]; cited from earlier work
Source text: The reason we observed attenuation at the high end of the ligand potency spectrum may be because we were able to examine T cell responses to a superagonist peptide, which possibly exceeds a ligand potency threshold at which T cell attenuation is observed. Attempts to find other strong 5C.C7 TCR ligands, which would facilitate examination o ...

Sequence | In vivo peptide antigen persistence (5C.C7 T cells) | EC50 [1] [nM] | Potency of T cell responses in vitro and in vivo (OT-1 TCR)
ANERADLIAYFKAATKF [K5] | persist equally and for a few weeks in vivo | 17.5 | 
ANERADLIAYLKQASK [102S] |  | 160 | 
ANERADLIAYLKQATK [MCC, moth cytochrome c (MCC) peptide] | persist equally and for a few weeks in vivo | 37.8 | 
ANERADLIAYPKAATKF [K3] |  | 24.9 | 
SIINFEKL [natural OT-1 TCR ligand] |  |  | induced the most robust response; also recorded: exhibited the most potent responses in vitro and in vivo
